From US20050080037A1, “Methods for treating acute and overuse sprain and strain using hyaluronic acid” (priority 2003, published 2005)

Tested on: patients with first or second degree lateral ankle sprain
Assay: Efficacy of HA on ankle sprain following periarticular administration (clinical study 1: HA; study 2: celecoxib or naproxen)
Assay type: in vivo, human
Conditions: for Percentage increase in Patient's Global Assessment (improved by one or more grades) / Mean Patient's Satisfaction Assessment (10 point scale) / Mean Physician's Satisfaction Assessment (10 point scale): study 2, oral BID for 7 days; for Mean VAS Weight-bearing (100 mm): study 2, oral BID for 7 days (celecoxib 200 mg, naproxen 500 mg)
Procedure: The study was conducted in accordance with good clinical practice and in compliance with the requirement of the International Conference on Harmonization and Declaration of Helsinki. On Day 1 (within 48 hours of the injury), the patients were examined to assess whether they meet all the inclusion criteria and none of the exclusion criteria after signing the informed consent. The inclusion criteria were: 18 years and older, first or second degree lateral ankle […] within 48 hours of administration of study drug, reported moderate (45-60 mm) to severe (>60 mm) ankle pain on full weight bearing on the Patient's Assessment of Ankle Pain using a 100 mm Visual Analogue Scale (VAS). This scale was available for the duration of the clinical follow-up. Patients with bilateral ankle […] injury, third-degree […], or previous ankle […] within 6 months were excluded. Also excluded were patients who had recently used anti-inflammatory drugs, muscle relaxants, or certain classes of psychotropic medications that could confound the results. In addition, patients with sensitivity or allergy to NSAIDs or sulfonamides as well as patients with a history of serious GI, renal, or hepatic disease were excluded. Patients with other rheumatic diseases or a history of drug or alcohol abuse were also excluded. After enrollment, patients received periarticular injections of HA (study 1) or an inhibitor of cyclooxygenase-2 or a NSAID (study 2). […] Eight to ten mg of HA (0.8-1.0 ml of HA) was injected, without anesthetic (study 1). Oral treatments with an inhibitor of cyclooxygenase-2, celecoxib 200 mg BID, or with a NSAID, naproxen 500 mg BID, were done for 7 days (study 2). Clinical assessments were performed at baseline, and then before treatment on Day 4 and Day 8 (end of study). […] In Table 1, 7 patients received HA. In Table 2, 199 patients received celecoxib and 198 patients received naproxen.

SMILES	Percentage increase in Patient's Global Assessment (improved by one or more grades) (at day 4) [%]	Mean VAS Weight-bearing (100 mm) (at day 4) [mm]	Mean Patient's Satisfaction Assessment (10 point scale) (at day 8)	Mean Physician's Satisfaction Assessment (10 point scale) (at day 8)	Percentage increase in Patient's Global Assessment (improved by one or more grades) (at day 8) [%]	Mean VAS Weight-bearing (100 mm) (at day 8) [mm]
Cc1ccc(-c2cc(C(F)(F)F)nn2-c2ccc(S(N)(=O)=O)cc2)cc1 [Celecoxib, celecoxib]	71	31.9	8.8	8.7	89	15.0
COc1ccc2cc([C@H](C)C(=O)O)ccc2c1 [Naproxen, naproxen]	72	29.0	8.7	8.6	90	15.3
